Measurements taken from US7615361B2, “Toxicity screening methods” (Ceetox, Inc., priority 2006, dated 2009).
≈ marks a conversion by molar mass, not a printed value. Like-named read-outs stand apart in the source and are kept apart here.

Columns and labels:
[1] = Intracellular total glutathione (GSH); type: cell-based, rat; details: rat
How it was run: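 Intracellular total glutathione serves as an oxidative-stress marker in neonatal rat cardiomyocytes exposed to compound in vitro. Cells were harvested for biochemical analysis, and values are means of each exposure group (n=3-7).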

rat cardiomyocytes = assay: Membrane lipid peroxidation (8-isoprostane ELISA); type: cell-based
How it was run: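 Neonatal rat cardiomyocytes exposed to the test compound, then cells or supernatant harvested for biochemical analysis of oxidative stress. Values are means of each exposure group (n=3-7).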

[2] = Cell number (propidium iodide); type: cell-based, rat; details: rat
How it was run: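 Rat hepatoma H4IIE cells exposed to compound in complete medium, then lysed with Triton X-100 containing propidium iodide; fluorescence read at 540/610 nm. Blank-subtracted RFU expressed as percent of untreated control cells, means of n=3-7.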

[3] = Solubility in culture medium (nephelometry); type: physicochemical
Description: Solubility: The test compounds were prepared in DMSO and the appropriate amounts were then added to complete medium containing 10% bovine serum […] at 37° C. The samples were evaluated using a light scattering technique and a Nephaloskan instrument.
Solubility Assay: The test compounds were prepared in DMSO and the appropriate amounts were then added to complete medium containing 10% bovine serum at 37° C. The samples were evaluated using a light scattering technique and a Nephaloskan instrument.

P-glycoprotein (PgP) = P-glycoprotein (PgP) binding: MTT with and without cyclosporin A; type: cell-based, rat
Description: Several antiviral drugs are substrates for P-glycoprotein transporter (PgP).
P-glycoprotein (PgP) transport proteins are expressed in the bile canalicular membrane of normal liver. However, in neoplastic cells it is not uncommon to have expression of this transporter system in the plasma membrane. […] The existence of these transporters was evaluated with the Calcein-AM assay and with known substrates of PgP.

[4] = MemTox membrane leakage (AK / α-GST); type: cell-based, rat; details: rat
How it was run: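 H4IIE rat hepatoma cells were exposed to compound diluted in complete culture medium. Leakage of adenylate kinase (luminescence) and/or α-GST (ELISA, 450/650 nm) was measured in the medium collected at the end of exposure. Percent live cells was computed relative to 1 mM digitonin-treated maximum release, as means of n=3-7.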

MTT reduction = type: cell-based, rat
How it was run: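 Cardiomyocytes from neonatal rats were exposed to the compound and cell function was monitored by tetrazolium (MTT) dye reduction. Values are group means over n=3-7.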

H4IIE cells = assay: Membrane lipid peroxidation (8-isoprostane ELISA); type: cell-based, rat
How it was run: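 Rat hepatoma H4IIE cells exposed to test compound prepared in complete culture medium; cells or supernatant harvested for oxidative-stress endpoints. Camptothecin and rotenone served as positive controls; group means from n=3-7.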

[5] = Intracellular total glutathione (GSH); type: cell-based, rat; details: rat; remark: listed apart in the source
How it was run: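 Rat hepatoma H4IIE cells were exposed to compound in dosing solutions made in complete culture medium, then harvested for biochemical measurement of intracellular total glutathione as an oxidative-stress marker. Values are exposure-group means, n=3-7.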

[6] = H4IIE 24 HR, MTT, 50 μM, with cyclosporin A
[7] = H4IIE 24 HR, MTT, 50 μM, without CSA

Q: Which results are given for `O=C1c2c(O)ccc(O)c2C(=O)c2c(NCCNCCO)ccc(NCCNCCO)c21` [MITOXANTRONE, mitoxantrone]?
A: CC50 at 24 h [1]: < 1 µM; Membrane Lipid Peroxidation (rat cardiomyocytes; rat, 24 h): 0; CC50 at 24 h ([2]; Cell Number TC50): < 1 µM; solubility ([3]; dosing medium with 20% serum, 37° C., CM 24 HR, read-out: Highest Soluble Concentration Tested): 300 µM (≈ 133 µg/mL); solubility ([3]; dosing medium with 20% serum, 37° C., H4IIE 24 HR, read-out: Highest Soluble Concentration Tested): 300 µM (≈ 133 µg/mL); % Control (Compound + CSA) (P-glycoprotein (PgP); [6]): 10.4%; % Control (Compound) (P-glycoprotein (PgP); [7]): 69.9%; % Difference (P-glycoprotein (PgP); H4IIE 24 HR, 1-20% low, 20-50% moderate, 50-100% high PgP interaction): 85.1%; CC50 at 24 h ([4]; MemTox TC50): > 300 µM; CC50 at 24 h (MTT reduction; rat): 1 µM; Membrane Lipid Peroxidation (H4IIE cells; rat, 24 h): 0; CC50 at 24 h ([5]; Total GSH TC50): 247 µM

Q: With `CC(=O)[C@]1(O)Cc2c(O)c3c(c(O)c2[C@@H](O[C@H]2C[C@H](N)[C@H](O)[C@H](C)O2)C1)C(=O)c1ccccc1C3=O` [IDARUBICIN, idarubicin] as the compound, how does the CC50 at 24 h [1] read?
A: < 1 µM

Q: What about the “Membrane Lipid Peroxidation” value (rat cardiomyocytes; rat, 24 h) of the same compound?
A: 0

Q: What about the CC50 at 24 h ([2]; Cell Number TC50) of the same compound?
A: 4 µM

Q: And the solubility ([3]; dosing (complete culture) medium with 20% serum, plasma or biological fluid, kinetic from dmso stock, dosing medium with 20% serum, 37° C., CM 24 HR, read-out: Highest Soluble Concentration Tested)?
A: 20 µM (≈ 9.95 µg/mL)

Q: And the “% Control (Compound + CSA)” value (P-glycoprotein (PgP); [6])?
A: 0.0%

Q: And the “% Control (Compound)” value (P-glycoprotein (PgP); [7])?
A: 0.8%

Q: And the CC50 at 24 h ([4]; MemTox TC50)?
A: 30 µM

Q: What about the CC50 at 24 h (MTT reduction; rat) of the same compound?
A: < 1 µM

Q: And the “Membrane Lipid Peroxidation” value (H4IIE cells; rat, 24 h)?
A: 0

Q: What about the CC50 at 24 h ([5]; Total GSH TC50) of the same compound?
A: 4 µM

Q: Which CC50 at 24 h ([1]; CM, 24 HR, read-out: Total GSH TC50) does the source give for `C=C(C)[C@H]1Cc2c(ccc3c2O[C@@H]2COc4cc(OC)c(OC)cc4[C@@H]2C3=O)O1` [ROTENONE, Rotenone] here?
A: 7 µM

Q: What about the “Membrane Lipid Peroxidation” value (rat cardiomyocytes; CM, 24 HR) of the same compound?
A: 3 (3 = Concentration related increase with a maximum value ≧30 pg/mL)

Q: What about the CC50 at 24 h ([2]; H4IIE, 24 HR exposure, read-out: Cell Number TC50) of the same compound?
A: 0.04 µM

Q: What about the solubility ([3]; 37 °C, plasma or biological fluid, kinetic from dmso stock, culture media containing 20% serum, NRK 6 HR, read-out: Highest Soluble Concentration) of the same compound?
A: 10 µM (≈ 3.94 µg/mL)

Q: And the solubility ([3]; 37 °C, plasma or biological fluid, kinetic from dmso stock, culture media containing 20% serum, NRK 24 HR, read-out: Highest Soluble Concentration)?
A: 10 µM (≈ 3.94 µg/mL)

Q: What about the solubility ([3]; 37 °C, plasma or biological fluid, kinetic from dmso stock, dosing medium with 20% serum, 37° C., CM 24 HR, read-out: Highest Soluble Concentration Tested) of the same compound?
A: 100 µM (≈ 39.4 µg/mL)

Q: And the solubility ([3]; 37 °C, plasma or biological fluid, kinetic from dmso stock, dosing medium with 20% serum, 37° C., H4IIE 24 HR, read-out: Highest Soluble Concentration Tested)?
A: 100 µM (≈ 39.4 µg/mL)

Q: What about the solubility ([3]; 37 °C, plasma or biological fluid, kinetic from dmso stock, dosing medium, 37° C., C32 24 HR, read-out: Highest Soluble Concentration) of the same compound?
A: 10 µM (≈ 3.94 µg/mL)

Q: And the solubility ([3]; 37 °C, plasma or biological fluid, kinetic from dmso stock, dosing medium, 37° C., HUVEC 24 HR, read-out: Highest Soluble Concentration)?
A: 10 µM (≈ 3.94 µg/mL)

Q: And the solubility ([3]; 37 °C, plasma or biological fluid, kinetic from dmso stock, dosing medium, 37° C., NHEM 24 HR, read-out: Highest Soluble Concentration)?
A: 100 µM (≈ 39.4 µg/mL)

Q: What about the solubility ([3]; 37 °C, plasma or biological fluid, kinetic from dmso stock, dosing medium, 37° C., SK-MEL28 24 HR, run #2, read-out: Highest Soluble Concentration) of the same compound?
A: 100 µM (≈ 39.4 µg/mL)

Q: And the solubility ([3]; 37 °C, plasma or biological fluid, kinetic from dmso stock, dosing medium, 37° C., SK-MEL28 24 HR, read-out: Highest Soluble Concentration)?
A: 10 µM (≈ 3.94 µg/mL)

Q: What about the solubility ([3]; 37 °C, plasma or biological fluid, kinetic from dmso stock, dosing medium, 37° C., SK-MEL28 72 HR, run #2, read-out: Highest Soluble Concentration) of the same compound?
A: 100 µM (≈ 39.4 µg/mL)

Q: What about the solubility ([3]; 37 °C, plasma or biological fluid, kinetic from dmso stock, dosing medium, 37° C., human hepatocytes 24 HR, read-out: Highest Soluble Concentration) of the same compound?
A: 10 µM (≈ 3.94 µg/mL)

Q: And the “% Control (Compound + CSA)” value (P-glycoprotein (PgP); [6])?
A: 0.0%

Q: And the “% Control (Compound)” value (P-glycoprotein (PgP); [7])?
A: 0.0%

Q: What about the CC50 at 24 h ([4]; H4IIE, 24 HR exposure, read-out: MemTox TC50) of the same compound?
A: 100 µM

Q: And the CC50 at 24 h (MTT reduction; rat cardiomyocytes (CM), 24 HR exposure, read-out: MTT TC50)?
A: 33 µM

Q: And the “Membrane Lipid Peroxidation” value (H4IIE cells; H4IIE, 24 HR)?
A: 2 (2 = Concentration related increase with maximum values ≧15 pg/mL)

Q: What about the CC50 at 24 h ([5]; H4IIE, 24 HR, read-out: Total GSH TC50) of the same compound?
A: 0.05 µM

Q: What does the source list for `COc1cccc2c1C(=O)c1c(O)c3c(c(O)c1C2=O)C[C@@](O)(C(C)=O)C[C@@H]3O[C@H]1C[C@H](N)[C@H](O)[C@H](C)O1` [DAUNORUBICIN, daunorubicin]?
A: CC50 at 24 h [1]: < 1 µM; Membrane Lipid Peroxidation (rat cardiomyocytes; rat, 24 h): 0; CC50 at 24 h [2]: 8 µM; solubility ([3]; plasma or biological fluid, kinetic from dmso stock, dosing medium with 20% serum, 37° C., CM 24 HR, read-out: Highest Soluble Concentration Tested): 100 µM (≈ 52.8 µg/mL); % Control (Compound + CSA) (P-glycoprotein (PgP)): 5.5%; % Control (Compound) (P-glycoprotein (PgP)): 9.3%; CC50 at 24 h [4]: 41 µM; CC50 at 24 h (MTT reduction; rat): 6 µM; Membrane Lipid Peroxidation (H4IIE cells; rat, 24 h): 0; CC50 at 24 h [5]: 16 µM
